Our source for the IC50 values is ChEMBL document CHEMBL3430850, “MMV Malaria Box gametocyte standard membrane feeding assay screening”.

Each structure is given as a SMILES string.

The experiment can be described thus: MMV: Gametocytes from P. falciparum reporter strain NF54-deltaPf47-5'hsp70-GFP::Luc were exposed to serial dilutions of compounds for 24 hours. Subsequently, compounds were washed out and gametocytes were fed to Anopheles stephensi mosquitoes. Three compounds were tested at six dilutions in one experimental run. All conditions were tested in duplicate in two different experimental runs. Each run included duplicate feeders for vehicle (0.1% DMSO) and positive (10 uM dihydroartemisinin) controls. Eight days post-feeding, oocyst densities were determined by assessment of luminescence signals in homogenized mosquitoes. Up to 24 mosquitoes were analysed per feeder. Luminescence data from individual mosquitoes were normalized against the average signals from the vehicle control feeds that were included in each run. IC50 values were determined by fitting a four-parameter logistic regression model using maximum likelihood optimization to find the best fit. It is filed as functional, Plasmodium falciparum.

As for `CCOC(=O)c1cnc2ccc(CC)cc2c1O`, the 50% inhibitory concentration (IC50) (read-out: IC50) stood at 110 nM.

`O=C(NC1CCN(Cc2ccccc2)CC1)c1cc(C(=O)NC2CCN(Cc3ccccc3)CC2)cc(C(=O)NC2CCN(Cc3ccccc3)CC2)c1`: where the note is “read-out: IC50”, the IC50 worked out at 1170 nM.

As for `CCOC(=O)c1cn(CC)c2cc(N3CCCCC3)c(F)cc2c1=O`, the IC50 (read-out: IC50) was 95.5 nM.

Take `OC1CCCCC1C1(NC(=S)Nc2ccccc2)CCCCC1` (stereo not drawn): the IC50 (read-out: IC50) amounted to 1740 nM.

Take `CCOC(=O)C1=C(C)N=c2sc(=Cc3cc(Cl)ccc3O)c(=O)n2C1c1ccc(OC)cc1` (stereo not drawn): the IC50 (read-out: IC50) was 3240 nM.

Turning to `CCN(CC)CCn1c(=N)n(CC(O)c2ccc(Cl)c(Cl)c2)c2ccccc21` (stereo not drawn), the IC50 (read-out: IC50) was found to be 1660 nM.

On to `Cc1ccc(-c2cc3c(nn2)-c2ccccc2C3=O)cc1`, for which the IC50 (read-out: IC50) turned out to be 1260 nM.

Consider `COc1ccc(-c2c(C)nn3c(N)c(C#N)cnc23)cc1OC`, for which the IC50 (read-out: IC50) came to 3630 nM.

Turning to `CN(C)CCCNc1c2ccccc2nc2ccccc12`, where the note is “read-out: IC50”, the half-inhibitory concentration (IC50) stood at 1170 nM.

As for `CC(C)(C)c1ccc2c(c1)CN(Cc1ccc(Cl)cc1)CO2`, under “read-out: IC50”, the half-maximal inhibitory concentration (IC50) came to 589 nM.

As for `COc1ccc(C2c3ccc4ccccc4c3Oc3ncn(CCCN(C)C)c(=N)c32)cc1` (stereo not drawn), under “read-out: IC50”, the concentration for half-maximal inhibition (IC50) was found to be 58.9 nM.

For the compound `CC1CN(C(=O)c2sc3ccccc3c2Cl)CC(C)O1` (stereo not drawn), the IC50 result is “Not active”.

As to `Clc1cc(Br)ccc1-c1ccc(CNCC2CCNCC2)o1`, the half-inhibitory concentration (IC50) (read-out: IC50) is 74.1 nM.

Consider `CC1=C(CC(=O)c2cccc([N+](=O)[O-])c2)C(=O)c2ccccc2C1=O`, for which, under “read-out: IC50”, the IC50 was determined as 1410 nM.

As for `Cc1sc2ncnc(Sc3nc4ccccc4[nH]3)c2c1C`, the half-maximal inhibitory concentration (IC50) (read-out: IC50) was determined as 1290 nM.

Turning to `COC(=O)c1ccc(C2C3=C(O)CC(c4ccc(F)cc4)CC3=Nc3ccccc3N2C(=O)c2ccccc2)cc1` (stereo not drawn), where the note is “read-out: IC50”, the IC50 came to 8510 nM.

Turning to `OC(CNC1CCCCC1)Cn1c2ccc(I)cc2c2cc(I)ccc21` (stereo not drawn), the IC50 result was “Not active”.

`CN(C)c1ccc(C(O)(c2ccc(N(C)C)cc2)c2ccc(N(C)C)cc2)cc1` [METHYLROSANILINE]: the IC50 (read-out: IC50) was found to be 38.9 nM.

What is called IC50 is the point on the concentration scale where inhibition reaches its midpoint.
